Patent publication US20240009195A1, “NOVEL USES” (INTRA-CELLULAR THERAPIES, INC., priority 2020, published 2024)

Columns and labels:
[1] = system: guinea pig cardiomyocytes; assay: Glucagon co-administration with PDE1 inhibitor in guinea pig cardiomyocytes (sarcomere shortening, Ca2+ transients); format: cell-based; details: glucagon (1 μM) plus Compound 1 (1 μM) vs glucagon alone, 37° C., pacing at 1 Hz
Description: Studies were carried out to test the effect of glucagon co-administration with a PDE1 inhibitor in guinea pig cardiomyocytes. Myocytes were isolated according to Liu et al., Circulation Research, 2014. A thoracotomy was performed on anesthetized guinea pigs to remove the heart. The aorta was cannulated on a Langendorf apparatus fitted with a heating jacket circulating water at 37° C., and were retrogradely perfused for 5 minutes at 8 ml/min. The perfusate was switched to a Tyrode's solution containing […] (Worthington) and protease type 14 (Sigma-Aldrich) for 7-9 minutes. The solution was switched to a modified Kraft-Bruhe (KB) buffer for 5 minutes, before being minced and filtered to yield single cells. Isolated cells were incubated in a modified KB buffer (Isenberg et al., Pflugers Arch, 1982] for an hour, before being placed in supplemented M199 ACCIT medium. (Ellingsen et al., American J Physiology, 1993) Cells were kept at room temperature, and used within 7 hours.
Changes in cell sarcomere shortening and Ca^2+ transients were measured using a customized IonOptix system previously described. (Hashimoto et al., Circulation, 2018). Briefly, cells were loaded using 1 μM Fura-2 for 15 minutes, and washed out for at least 20 minutes. Baseline recording was made in Tyrode's buffer described above, with 0.1% DMSO. […]

hPDE1A = hPDE1A (Homo sapiens, UniProt P54750); assay: IMAP PDE assay, selectivity table; format: biochemical
Chain of hPDE1A (P54750 whole entry): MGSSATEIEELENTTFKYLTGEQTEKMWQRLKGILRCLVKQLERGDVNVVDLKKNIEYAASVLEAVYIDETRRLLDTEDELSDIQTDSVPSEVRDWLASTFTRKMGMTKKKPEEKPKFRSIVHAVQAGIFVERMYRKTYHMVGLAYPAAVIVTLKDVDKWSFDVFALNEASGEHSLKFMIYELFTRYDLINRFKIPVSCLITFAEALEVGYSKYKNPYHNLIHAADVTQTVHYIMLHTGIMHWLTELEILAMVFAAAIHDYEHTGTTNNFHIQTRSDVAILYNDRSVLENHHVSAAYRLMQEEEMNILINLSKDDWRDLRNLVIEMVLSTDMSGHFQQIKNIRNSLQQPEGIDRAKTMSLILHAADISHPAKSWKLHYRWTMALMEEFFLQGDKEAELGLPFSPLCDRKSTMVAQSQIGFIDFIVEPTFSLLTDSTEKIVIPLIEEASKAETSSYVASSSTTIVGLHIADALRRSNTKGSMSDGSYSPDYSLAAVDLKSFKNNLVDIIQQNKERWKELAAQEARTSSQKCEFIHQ

hPDE1C = hPDE1C (Homo sapiens, UniProt Q14123); assay: IMAP PDE assay, selectivity table; format: biochemical
Chain of hPDE1C (Q14123 whole entry): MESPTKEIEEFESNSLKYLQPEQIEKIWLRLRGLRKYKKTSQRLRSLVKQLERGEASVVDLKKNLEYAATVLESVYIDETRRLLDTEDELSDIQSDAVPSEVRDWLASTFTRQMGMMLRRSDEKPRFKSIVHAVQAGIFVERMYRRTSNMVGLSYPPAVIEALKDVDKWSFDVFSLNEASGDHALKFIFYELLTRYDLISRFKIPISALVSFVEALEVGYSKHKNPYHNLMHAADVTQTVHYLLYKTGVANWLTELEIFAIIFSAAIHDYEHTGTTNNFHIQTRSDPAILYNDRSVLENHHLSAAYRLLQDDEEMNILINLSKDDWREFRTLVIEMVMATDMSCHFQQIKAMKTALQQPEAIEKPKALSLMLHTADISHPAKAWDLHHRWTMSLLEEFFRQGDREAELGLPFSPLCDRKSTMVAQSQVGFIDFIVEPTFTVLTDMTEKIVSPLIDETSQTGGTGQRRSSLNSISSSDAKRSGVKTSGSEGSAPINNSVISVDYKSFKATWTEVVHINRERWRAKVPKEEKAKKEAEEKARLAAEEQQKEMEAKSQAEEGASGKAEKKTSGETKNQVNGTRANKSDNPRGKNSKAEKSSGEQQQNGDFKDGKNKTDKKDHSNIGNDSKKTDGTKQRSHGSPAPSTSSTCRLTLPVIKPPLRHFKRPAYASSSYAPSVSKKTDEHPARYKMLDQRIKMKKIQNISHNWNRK

IC50 (hPDE1A): 0.027 nM
IC50 (hPDE1C): 0.037 nM
Compound: CN1C(=O)c2c(nn(Cc3ccc(-c4cccc(F)n4)cc3)c2Nc2ccccc2)N2C1=N[C@@H]1CCC[C@@H]12 [Compound 1]
change in cell sarcomere shortening ([1]; FIG. 1): increased the beneficial effects of glucagon
peak Ca2+ transient amplitude ([1]; FIG. 2): increased the beneficial effects of glucagon
